Assay results published in PubChem BioAssay (NCI).
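In this assay, cells in 96-well plates receive the compound at five concentrations for 48 hours. Endpoints are linearly interpolated between the surrounding concentrations. Abbreviation: GI50, concentration required for 50% inhibition of growth. TGI: total growth inhibition.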

Legend:
Experiment in all cases: growth of human tumour cells (NCI), 48 h
ACHN renal = test system: ACHN renal
COLO 205 colon = test system: COLO 205 colon
HT29 colon = test system: HT29 colon
LOX IMVI melanoma = test system: LOX IMVI melanoma
MCF7 breast = test system: MCF7 breast
NCI-H522 lung = test system: NCI-H522 lung
RXF 393 renal = test system: RXF 393 renal
SF-539 CNS = test system: SF-539 CNS
KM12 colon = test system: KM12 colon
HOP-62 NSCLC = test system: HOP-62 NSCLC

Compound | TGI (ACHN renal) | TGI (COLO 205 colon) | TGI (HT29 colon) | TGI (LOX IMVI melanoma) | TGI (MCF7 breast) | TGI (NCI-H522 lung) | TGI (RXF 393 renal) | TGI (SF-539 CNS) | GI50 (ACHN renal) | GI50 (COLO 205 colon) | GI50 (HT29 colon) | GI50 (KM12 colon) | TGI (KM12 colon) | GI50 (LOX IMVI melanoma) | GI50 (MCF7 breast) | GI50 (NCI-H522 lung) | GI50 (RXF 393 renal) | GI50 (SF-539 CNS) | TGI (HOP-62 NSCLC) | GI50 (HOP-62 NSCLC)
O=C(CNc1ccc(Cl)cc1Cl)Nn1c(-c2ccccc2)nc2ccccc2c1=O | 37.3 µM | 36.1 µM | 37.6 µM | 24.1 µM | 27.4 µM | 25.7 µM | 36.5 µM | 35.6 µM |  |  |  |  |  |  |  |  |  |  |  | 
CO[C@@H]1CC[C@]2(C)OC[C@H](C)[C@@H]3C[C@@H](C)[C@@H](OC(C)=O)[C@@H]4[C@H]3[C@@H]2O[C@H]4C[C@@]1(C)O | > 100 µM | > 100 µM | > 100 µM | > 100 µM | > 100 µM | > 100 µM | > 100 µM | > 100 µM | > 100 µM | > 100 µM | > 100 µM | > 100 µM | > 100 µM | > 100 µM | > 100 µM | > 100 µM | > 100 µM | > 100 µM |  | 
Oc1oc(C(=C2N=c3ccccc3=N2)c2ccc(Cl)cc2)c(O)c1-c1ccc(Cl)cc1 | 14.7 µM | 3.01 µM | 10.7 µM | 10.1 µM |  | 6.18 µM | 6.8 µM | 9.91 µM |  |  |  |  | 15.9 µM |  |  |  |  |  | 4.51 µM | 
Cc1nc2c(N)ncnc2o1 | > 100 µM | > 100 µM | > 100 µM | > 100 µM |  | > 100 µM | > 100 µM | > 100 µM |  |  |  |  | > 100 µM |  |  |  |  |  | > 100 µM | 
O=C1C/C(Br)=C\c2ccccc2-c2ccccc21 | 4.5 µM | 12.4 µM | 4.72 µM | 2.43 µM |  | 1.59 µM | 3.04 µM | 4.85 µM |  |  |  |  | 11.5 µM |  |  |  |  |  | 9.67 µM | 
CCCCCCCCCCCC[N+]12CC[N+](CCN)(CC1)CC2 | > 100 µM | > 100 µM | > 100 µM | > 100 µM |  | > 100 µM | 18.1 µM | > 100 µM |  |  |  |  | 62.7 µM |  |  |  |  |  | > 100 µM | 
O=[N+]([O-])c1cccnc1N=Nc1c(O)[nH]c2ccccc12 | 36 µM |  | 26 µM | 25.7 µM | 20.6 µM | 69.3 µM |  | 12.7 µM |  |  |  |  | 25.6 µM |  |  |  |  |  | 60.7 µM | 
CC[C@]1(O)C[C@H]2CN(CCc3c([nH]c4ccccc34)C(C(=O)OC)(c3cc4c(cc3OC)N(C)[C@H]3[C@@](O)(C(=O)OC)[C@H](OC(C)=O)[C@]5(CC)[C@@H]6C[C@@H]6CN6CC[C@]43[C@@H]65)C2)C1 (stereo partly specified) | > 14.3 µM | 0.00937 µM | 0.0867 µM | > 10.3 µM | > 14.3 µM | 0.00528 µM |  | 3.04 µM | 0.012 µM | 0.00246 µM | 0.00258 µM | 0.00296 µM | 1.26 µM | 0.00273 µM | 0.0019 µM | < 0.00143 µM |  | 0.0226 µM | > 9.22 µM | 0.00365 µM
O=c1[nH]c(=O)n(C2CC(O)C(CO)O2)cc1OS(=O)(=O)C(F)(F)F (stereo unspecified) | > 100 µM | > 100 µM | > 100 µM | > 100 µM |  | > 100 µM | > 100 µM | > 100 µM |  |  |  |  | > 100 µM |  |  |  |  |  | > 100 µM | 
O=C1C=C(Nc2ccc(Cl)cc2C(=O)c2ccccc2)c2ccccc2C1=O | > 100 µM | > 100 µM | > 100 µM | > 100 µM |  | > 100 µM | > 100 µM | > 100 µM |  |  |  |  | > 100 µM |  |  |  |  |  | > 100 µM | 
CC[C@@H]1NC(C(=O)OC)Cc2c1[nH]c1ccccc21 (stereo partly specified) | > 100 µM | > 100 µM | > 100 µM | > 100 µM |  |  |  | > 100 µM |  |  |  |  | > 100 µM |  |  |  |  |  |  | 
O=C1C=C(c2c(O)ccc3ccccc23)c2cc(O)ccc2C1=O | 31.5 µM | 40 µM | 47.9 µM | 25.3 µM |  |  | 29.1 µM | 39.3 µM |  |  |  |  | 31.5 µM |  |  |  |  |  | 35.4 µM | 
O=C(c1ccc([N+](=O)[O-])cc1[N+](=O)[O-])N(/N=C/C=C/c1ccccc1)c1nnc(-c2ccccc2)c(-c2ccccc2)n1 | 78.1 µM | > 100 µM | > 100 µM | > 100 µM |  | 96.6 µM | 71.1 µM | 30.1 µM |  |  |  |  | > 100 µM |  |  |  |  |  | > 100 µM | 
Cc1cc(C)nc(NS(=O)(=O)c2ccc(Nc3c4ccccc4nc4c(C(=O)N5CCN(CCO)CC5)cccc34)cc2)n1 | > 100 µM | > 100 µM | > 100 µM | > 100 µM |  |  | > 100 µM | > 100 µM |  |  |  |  | > 100 µM |  |  |  |  |  | > 100 µM | 
CC1=C(C(=O)Nc2ccccc2)C(c2ccc(Cl)c(Cl)c2)C(C(=O)Nc2ccccc2)=C(C)N1 | 24.9 µM | 29.4 µM | 24.6 µM | 28.5 µM |  | 25.8 µM | 21.7 µM | 32.3 µM |  |  |  |  | 25.7 µM |  |  |  |  |  | 28.6 µM | 
COc1ccc(NC(=O)CSc2nnc(-c3ccc(NC(C)=O)cc3)o2)cc1 | 31.1 µM | 36.8 µM | 25.2 µM | 29.5 µM |  | 33.9 µM | 28.7 µM |  |  |  |  |  | 30 µM |  |  |  |  |  | 68.6 µM | 
CC(=O)N/C(=C\c1ccccc1/C=C(\NC(C)=O)c1nc2cc(C)c(C)cc2[nH]1)c1nc2cc(C)c(C)cc2[nH]1 | 28.4 µM | > 100 µM | > 100 µM |  |  | 24 µM |  | 44.3 µM |  |  |  |  | > 100 µM |  |  |  |  |  | 68.6 µM | 
NCCCn1c2c(c3ccc([N+](=O)[O-])cc3c1=O)C(=O)c1cc(I)ccc1-2 | 1.29 µM | 2.44 µM | 0.352 µM | 1.39 µM | 0.517 µM |  | 2.28 µM | 1.21 µM | < 0.0179 µM | 1.02 µM | 0.0951 µM | 0.127 µM | 1.31 µM | < 0.01 µM | < 0.01 µM |  | 0.503 µM | 0.0435 µM | 1.75 µM | 0.0211 µM
CC12c3ccccc3C(OC=O)(c3ccccc31)C1(C)c3ccccc3C2(OC=O)c2ccccc21 | > 100 µM | > 100 µM | > 100 µM | > 100 µM |  | > 100 µM | > 100 µM |  |  |  |  |  | > 100 µM |  |  |  |  |  | > 100 µM | 
CCOC(=O)Cc1csc(Nc2ccccc2[N+](=O)[O-])n1 | > 100 µM | > 100 µM | > 100 µM | > 70.2 µM |  | > 100 µM | > 100 µM | > 100 µM |  |  |  |  | > 100 µM |  |  |  |  |  | > 100 µM | 
